In paper PMC11701928, “Co-crystal structure of Helicobacter pylori biotin protein ligase with biotinyl-5-ATP” (Acta Crystallographica Section F: Structural Biology …, 2025):

Target: T1, HpBPL (Helicobacter pylori, UniProt B5Z8D8)
T1 construct: gene HPG27_1085
T1 sequence (B5Z8D8 1-212): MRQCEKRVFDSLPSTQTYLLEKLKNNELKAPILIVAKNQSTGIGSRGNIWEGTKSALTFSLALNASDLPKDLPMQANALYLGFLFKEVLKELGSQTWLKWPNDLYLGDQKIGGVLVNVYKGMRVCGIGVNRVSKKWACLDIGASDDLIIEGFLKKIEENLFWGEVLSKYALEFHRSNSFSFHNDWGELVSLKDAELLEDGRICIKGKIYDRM
Test: turnover to biotinyl-5-ATP seen in crystal structure
Assay type: biochemical
Conditions: 10 min

| Compound | turnover to biotinyl-5-ATP seen in crystal structure (6 mM ATP with 6 mM biotin and 6 mM MgCl2, 25 °C) | turnover to biotinyl-5-ATP seen in crystal structure (6 mM biotin with 6 mM ATP and 6 mM MgCl2, 25 °C) |
| --- | --- | --- |
| Nc1ncnc2c1ncn2[C@@H]1O[C@H](COP(=O)(O)OP(=O)(O)OP(=O)(O)O)[C@@H](O)[C@H]1O [ATP] | catalytically active and generates biotinyl-5-ATP upon incubation with MgCl2, ATP and biotin | – |
| O=C(O)CCCC[C@@H]1SC[C@@H]2NC(=O)N[C@@H]21 [biotin] | – | catalytically active and generates biotinyl-5-ATP upon incubation with MgCl2, ATP and biotin |
